Values joined by “and” are separate entries in the source; they are usually repeats but may differ in a detail not shown here. Equal entries are not always repeated. Numbers after ± are expanded uncertainties.
Conditions: Liquid, Transpiration method

CN(C)CCCN(C)C [N,N,N',N'-tetramethyl-1,3-propanediamine]
Conditions	vapor or sublimation pressure
273.5 K	0.1509 ± 0.0059 kPa and 0.1417 ± 0.0065 kPa
274.2 K	0.1541 ± 0.0062 kPa
275 K	0.1633 ± 0.0068 kPa
275.6 K	0.1714 ± 0.007 kPa
276.1 K	0.1754 ± 0.0072 kPa
276.6 K	0.1837 ± 0.0078 kPa
277.1 K	0.191 ± 0.0078 kPa
278.4 K	0.2056 ± 0.0083 kPa
279.2 K	0.2168 ± 0.0092 kPa
281.1 K	0.2546 ± 0.01 kPa
283.4 K	0.2873 ± 0.012 kPa and 0.3004 ± 0.012 kPa
285.8 K	0.3528 ± 0.015 kPa
287.6 K	0.4012 ± 0.017 kPa
289 K	0.455 ± 0.019 kPa
294.3 K	0.6329 ± 0.025 kPa
295.7 K	0.6783 ± 0.027 kPa
299.2 K	0.8136 ± 0.033 kPa and 0.8194 ± 0.033 kPa
300.8 K	0.9386 ± 0.039 kPa
304.3 K	1.143 ± 0.046 kPa
305.8 K	1.227 ± 0.049 kPa and 1.226 ± 0.049 kPa
309.1 K	1.435 ± 0.058 kPa
310.8 K	1.654 ± 0.067 kPa
310.9 K	1.663 ± 0.068 kPa
315.6 K	2.117 ± 0.086 kPa and 2.069 ± 0.084 kPa and 2.116 ± 0.086 kPa
323.1 K	3.214 ± 0.13 kPa

CCN(CC)CCCN [N,N-diethylpropane-1,3-diamine]
Conditions	vapor or sublimation pressure
277.2 K	0.03765 ± 0.0016 kPa
279.1 K	0.04448 ± 0.0019 kPa
280.2 K	0.04785 ± 0.002 kPa
283.2 K	0.06153 ± 0.0026 kPa
286.2 K	0.07622 ± 0.0031 kPa
287.7 K	0.08442 ± 0.0036 kPa
288.2 K	0.09379 ± 0.0039 kPa
289.2 K	0.09614 ± 0.0039 kPa
291.1 K	0.1087 ± 0.0045 kPa and 0.1173 ± 0.0049 kPa
292.1 K	0.1195 ± 0.0051 kPa
293.2 K	0.1316 ± 0.0054 kPa
295.2 K	0.1494 ± 0.0061 kPa and 0.1591 ± 0.0065 kPa
297.2 K	0.17 ± 0.0093 kPa
297.3 K	0.1835 ± 0.0077 kPa and 0.1811 ± 0.0076 kPa
297.4 K	0.1872 ± 0.0079 kPa
297.5 K	0.1799 ± 0.0083 kPa
298.2 K	0.1935 ± 0.0078 kPa
299.4 K	0.2021 ± 0.0084 kPa
299.5 K	0.2132 ± 0.0088 kPa
301.2 K	0.2397 ± 0.0099 kPa
303.1 K	0.274 ± 0.011 kPa and 0.2527 ± 0.011 kPa
303.3 K	0.2637 ± 0.011 kPa
305.1 K	0.3138 ± 0.013 kPa

CN(C)CCCN [N,N-dimethyl-1,3-propanediamine]
Conditions	vapor or sublimation pressure
273.5 K	0.1753 ± 0.0075 kPa
273.8 K	0.1802 ± 0.0078 kPa
274.2 K	0.1875 ± 0.0081 kPa
275.8 K	0.2076 ± 0.0085 kPa
275.9 K	0.2029 ± 0.0083 kPa
276.4 K	0.2181 ± 0.0093 kPa
277.8 K	0.2407 ± 0.011 kPa
278.1 K	0.2481 ± 0.011 kPa
278.4 K	0.2539 ± 0.011 kPa
281.1 K	0.2962 ± 0.015 kPa
281.4 K	0.3109 ± 0.016 kPa
283.4 K	0.3594 ± 0.015 kPa and 0.3558 ± 0.015 kPa and 0.3618 ± 0.015 kPa
285.8 K	0.4176 ± 0.021 kPa
286.2 K	0.4454 ± 0.022 kPa
288.1 K	0.5012 ± 0.02 kPa and 0.4936 ± 0.02 kPa
288.7 K	0.5167 ± 0.021 kPa
288.8 K	0.5086 ± 0.021 kPa
289.2 K	0.5356 ± 0.025 kPa and 0.538 ± 0.025 kPa
291.7 K	0.628 ± 0.025 kPa
292.1 K	0.6355 ± 0.027 kPa and 0.6539 ± 0.027 kPa
293 K	0.6977 ± 0.029 kPa
294.9 K	0.7794 ± 0.036 kPa
295.2 K	0.8075 ± 0.036 kPa
296.9 K	0.8821 ± 0.035 kPa
297.8 K	0.9313 ± 0.039 kPa
298.2 K	0.981 ± 0.04 kPa
298.9 K	1.011 ± 0.041 kPa
299.7 K	1.058 ± 0.043 kPa

CNCCCN [N-methyl-1,3-diaminopropane]
Conditions	vapor or sublimation pressure [kPa]
276.2 K	0.09113 ± 0.0039
279.3 K	0.1163 ± 0.0049
282.3 K	0.1481 ± 0.0062
285.2 K	0.1855 ± 0.0077
288.2 K	0.2287 ± 0.0096
291.2 K	0.2973 ± 0.012
292.7 K	0.3328 ± 0.014
294.1 K	0.3667 ± 0.015
297.1 K	0.4634 ± 0.019
298.8 K	0.5298 ± 0.022
300.2 K	0.5889 ± 0.024
303.2 K	0.7223 ± 0.029
